Test systems include HCC-2998 colon; HL-60(TB) leukemia; IGROV1 ovarian; MALME-3M melanoma; NCI-H460 lung; NCI-H522 lung; PC-3 prostate; SF-295 CNS; SNB-75 CNS; UO-31 renal.
Common to all, as to assay: NCI anticancer screen, dose series, 48 h

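All cell lines were grown in 96-well plates and treated with compound for 48 hours. TGI marks complete inhibition of growth.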

Among the data in PubChem BioAssay (NCI) are TGI values, retold here.

As to `CC(OC(=O)C(CC(=O)OC(C)(C)C)NC(=O)OC(C)(C)C)C(=O)OCc1ccccc1` (stereo not given), the TGI in the assay with HCC-2998 colon, in the assay on HL-60(TB) leukemia, in the assay with IGROV1 ovarian, in the assay on MALME-3M melanoma, with NCI-H460 lung and in the assay with NCI-H522 lung was above 100 µM in each case. Besides, the TGI in the assay with PC-3 prostate, with SF-295 CNS, in the assay with SNB-75 CNS and in the assay on UO-31 renal was above 100 µM in each case.

As for `CCOC(=O)C(NC(=O)c1ccccc1)(Nc1ccc(Cl)cc1C(F)(F)F)C(F)(F)F` (stereo not given), the TGI in the assay on HCC-2998 colon is above 79.4 µM; in the assay with HL-60(TB) leukemia, 5.04 µM; in the assay with IGROV1 ovarian, above 64.7 µM; in the assay with MALME-3M melanoma, 22.1 µM; with NCI-H460 lung, above 52.3 µM; with NCI-H522 lung it was 7.29 µM. The TGI in the assay on PC-3 prostate is 29.2 µM; in the assay with SF-295 CNS it was above 69.8 µM; with SNB-75 CNS, 15.1 µM; in the assay on UO-31 renal it was above 100 µM.

Consider `COc1cc2c(cc1OC)C(=O)/C(=C/c1cc(OC)c(OC)c(OC)c1)C2`, for which the TGI with HL-60(TB) leukemia was above 100 µM; in the assay with IGROV1 ovarian, above 100 µM; in the assay on MALME-3M melanoma, above 100 µM; in the assay with NCI-H460 lung, above 100 µM; in the assay with NCI-H522 lung, 51 µM; in the assay on PC-3 prostate, above 100 µM. The TGI with SF-295 CNS, in the assay with SNB-75 CNS and in the assay with UO-31 renal was above 100 µM in each case.

Turning to `CC1CCC2(CC1)NC1=C(CC(C)CC1)C1=C2CC(C)CC1` (stereo not given), the TGI with HCC-2998 colon was 45.1 µM; with HL-60(TB) leukemia, 35.9 µM; in the assay on IGROV1 ovarian, above 100 µM; in the assay with MALME-3M melanoma it was 74.5 µM; in the assay on NCI-H460 lung, 75.7 µM; in the assay on NCI-H522 lung, 40 µM. Besides, the TGI came out at 47.9 µM in the assay on PC-3 prostate, 36.9 µM with SF-295 CNS, 59.7 µM with SNB-75 CNS and 51.7 µM in the assay on UO-31 renal.

Consider `COC(=O)[C@H](Cc1ccc(OC(C)(C)C)cc1)N[C@H](C)C(=O)N[C@@H](Cc1ccccc1)C(=O)OCc1ccccc1`, for which the TGI with HCC-2998 colon, in the assay with HL-60(TB) leukemia, in the assay on IGROV1 ovarian, with MALME-3M melanoma, with NCI-H460 lung and in the assay on NCI-H522 lung was above 100 µM in each case. The TGI was above 100 µM in the assay on PC-3 prostate, above 100 µM in the assay on SF-295 CNS, above 100 µM in the assay on SNB-75 CNS and 43.7 µM with UO-31 renal.

Consider `COc1ccc(C2C3CCc4ccccc4C3=NN2S(=O)(=O)c2ccc(/C=C/C(=O)O)cc2)cc1` (stereo not given), for which the TGI was 9.67 µM with HL-60(TB) leukemia; 4.91 µM with IGROV1 ovarian; 23.1 µM in the assay with MALME-3M melanoma; 96.5 µM with NCI-H460 lung; 7.04 µM in the assay on NCI-H522 lung; above 100 µM in the assay with PC-3 prostate. Also, the TGI in the assay on SF-295 CNS came out at 9.08 µM; in the assay on UO-31 renal, 38 µM.

Take `COC(=O)/C=C/C1(O)C=CC(=O)C=C1`: the TGI is 21 µM with HCC-2998 colon; 6.8 µM in the assay with HL-60(TB) leukemia; 7.74 µM in the assay with IGROV1 ovarian; 8.26 µM in the assay with MALME-3M melanoma; above 61.7 µM in the assay on NCI-H460 lung; 0.598 µM in the assay with NCI-H522 lung. Also, the TGI is 9.53 µM in the assay on PC-3 prostate, 38.3 µM with SF-295 CNS, 24 µM with SNB-75 CNS and 3.51 µM in the assay on UO-31 renal.

Take `COC(=O)[C@H](CC(C)C)Nc1c(O)c2c(c(O)c1Cl)C(=O)C=CC2=O`: the TGI in the assay with HCC-2998 colon, in the assay on HL-60(TB) leukemia, with IGROV1 ovarian, in the assay on MALME-3M melanoma, with NCI-H460 lung and in the assay with NCI-H522 lung was above 10 µM each time. The TGI with PC-3 prostate, with SF-295 CNS and in the assay on SNB-75 CNS was above 10 µM each time.

In the case of `CC(=O)OC12c3ccccc3-c3ccccc3C1C1C(=O)OC(=O)C12` (stereo not given), the TGI with HCC-2998 colon, in the assay with HL-60(TB) leukemia, in the assay with IGROV1 ovarian, in the assay with MALME-3M melanoma, with NCI-H460 lung and in the assay on NCI-H522 lung was above 10 µM throughout. The TGI in the assay with PC-3 prostate, with SF-295 CNS, with SNB-75 CNS and with UO-31 renal was above 10 µM in each case.

Consider `CCOC(=O)C(=O)/C(=C/N1C(=O)CC(=O)NC1=S)C(=O)OCC`, for which the TGI in the assay with HCC-2998 colon, with HL-60(TB) leukemia, in the assay on IGROV1 ovarian, in the assay with MALME-3M melanoma, in the assay on NCI-H460 lung and in the assay on NCI-H522 lung was above 100 µM each time. The TGI in the assay on PC-3 prostate, in the assay with SF-295 CNS, in the assay on SNB-75 CNS and in the assay with UO-31 renal was above 100 µM in each case.

`O=C(NCCNCCCNC(=O)c1cc(-c2ccccc2)nc2ccccc12)c1cccc(OCc2ccccc2)c1OCc1ccccc1`: the TGI in the assay on HCC-2998 colon came to 2.59 µM; in the assay with HL-60(TB) leukemia, 3.19 µM; with IGROV1 ovarian, 3.44 µM; with MALME-3M melanoma, 3.58 µM; in the assay on NCI-H460 lung it was 3.8 µM; in the assay on NCI-H522 lung, 3.12 µM. Further, the TGI with PC-3 prostate worked out at 3.04 µM; with SF-295 CNS, 3.03 µM; in the assay with SNB-75 CNS, 3.39 µM; in the assay on UO-31 renal it was 3.03 µM.

Regarding `O=C(CNC(c1ccccc1)(c1ccccc1)c1ccccc1)NC1CCCCC1NC(=O)CNC(c1ccccc1)(c1ccccc1)c1ccccc1` (stereo not given), the TGI in the assay with HCC-2998 colon, with HL-60(TB) leukemia, in the assay with IGROV1 ovarian, in the assay with MALME-3M melanoma, with NCI-H460 lung and in the assay on NCI-H522 lung was above 100 µM in each case. Also, the TGI in the assay with PC-3 prostate, in the assay with SF-295 CNS and with UO-31 renal was above 100 µM in each case.

`O=C1C=CC(=O)c2c1ccc1c3ccccc3n(Cc3cccc([N+](=O)[O-])c3)c21`: the TGI is above 100 µM with HCC-2998 colon; 15.3 µM with HL-60(TB) leukemia; 54.7 µM in the assay with IGROV1 ovarian; 40 µM in the assay with MALME-3M melanoma; above 100 µM in the assay with NCI-H460 lung; 37.2 µM in the assay on NCI-H522 lung. Moreover, the TGI in the assay on PC-3 prostate was above 69 µM; with SF-295 CNS it was above 100 µM; with SNB-75 CNS, above 100 µM; in the assay on UO-31 renal, above 100 µM.
